We go through two molecules from patent publication US11529323B2 (priority 2017, dated 2022).

In test [1] the test system is C-26 colon adenocarcinoma cachexia model. Nature of the test: AR-42 dose-response study in the C-26 cachexia model. In kind it is in vivo, mouse. On the procedure:
These studies were performed as previously described (Tseng Y C, et al. J Natl Cancer Inst. 2015 107(12):djv274) with modifications. Tumors were established in the right flank by subcutaneous injection of C-26 cells (0.5×10^6 cells in 0.1 mL). […] TFM-4AS-1 (a potent experimental SARM), dihydrotestosterone (DHT) and vehicles were administered by subcutaneous injection.
Male CD2F1 mice were stratified by body weight and then randomly assigned into 5 groups of 6 animals each. C-26 tumors were established in four of the groups, while those in the fifth group, serving as tumor-free controls, were injected with sterile saline. Six days later, animals with palpable tumors were treated with AR-42 once daily at 10 (n=5) and 20 mg/kg (n=6), and every other day at 50 mg/kg (n=5), or vehicle control (n=4) for 13 days. Upon sacrifice on study day 18, when the majority of tumor-bearing control mice met euthanasia criteria, the left gastrocnemius muscle was excised and flash frozen in liquid nitrogen and stored at −80° C. for subsequent analyses. Carcass weights were corrected for tumor weight by assuming a tumor density equivalent to water (1 g/cm^3).

A further test deals with C-26 tumor-bearing mice. The settings on record: AR-42 50 mg/kg, Tseng et al. 2015, cited from earlier work.
Another test deals with luteinizing hormone. Nature of the test: Serum luteinizing hormone radioimmunoassay, Study 1. In kind it is in vivo, mouse. To be noted: Study 1, Day 18; C-26 tumor bearing mice; GTx-024 15 mg/kg. On the procedure:
FIG. 9A is a bar graph showing serum luteinizing hormone levels measured on Day 18. FIG. 9B is a graph showing per animal food consumption measured every two days. FIG. 9C is a plot showing spleen weights normalized to tumor mass-corrected terminal body weight. […], versus tumor-bearing vehicle-treated controls, Dunnett's multiple comparison test.
Luteinizing hormone (LH) was measured in serum by a two-site sandwich radioimmunoassay performed by the Ligand Assay and Analysis Core at the Center for Research in Reproduction, University of Virginia School of Medicine (Charlottesville, Va.). Serum was isolated by centrifugation (2000×g, 15 minutes) from whole blood samples collected from mice immediately post-mortem, and then stored at −80° C. until shipment on dry ice.

Consider `CC(C)[C@H](C(=O)Nc1ccc(C(=O)NO)cc1)c1ccccc1` [AR-42, (S)—N-hydroxy-4-(3-methyl-2-phenylbutanamido)benzamide], for which, in test [1] (daily oral, C-26 model), the lowest efficacious dose came to 10 mg/kg. Further, in test [1] (thirteen daily oral doses of 20 or 10 mg/kg, similar to six 50 mg/kg doses q2d, C-26 tumor-bearing mice, Day 18), the tumor-corrected body weight entry is “reversed C-26 tumor-mediated reductions in tumor-corrected body weight”. Besides, the effect on adipose result in the test with C-26 tumor-bearing mice is recorded as “adipose-sparing effect”. The “serum IL-6 levels and gastrocnemius IL-6 receptor mRNA abundance” value in the test on C-26 tumor-bearing mice (tumor-bearing mice) is “reduced serum IL-6 levels, as well as gastrocnemius IL-6 receptor mRNA abundance”.

With `C[C@](O)(COc1ccc(C#N)cc1)C(=O)Nc1ccc(C#N)c(C(F)(F)F)c1` [GTx-024, (2S)-3-(4-cyanophenoxy)-N-(4-cyano-3-(trifluoromethyl)phenyl)-2-hydroxy-2-methylpropanamide], in the test with luteinizing hormone, the serum luteinizing hormone entry is listed as “suppression of serum luteinizing hormone”.
